Earlier results as cited in US20220305127A1, “PYRROLOBENZODIAZEPINE ANTIBODY CONJUGATES” (priority 2017, published 2022).

Conditions: Phase I clinical evaluation

For `C=C1C[C@H]2C=Nc3cc(OCCCOc4cc5c(cc4OC)C(=O)N4CC(=C)C[C@H]4C=N5)c(OC)cc3C(=O)N2C1` [SJG-136], the “DNA damage in circulating lymphocytes” value is listed as “noted at all doses”, the adverse effects is listed as “vascular leak syndrome, peripheral edema, liver toxicity and fatigue” and the maximum tolerated dose is listed as 45 μg/m^2.
